Entries after “also recorded” stand apart in the source; their conditions may differ.
How the values were obtained:
bacterial sirtuins = biological target: T1, bacterial sirtuins (Escherichia coli, UniProt P75960); test: Expression of recombinant human AceCS2 in nicotinamide-treated E. coli, acetyl-lysine immunoblot; format: cell-based
T1 construct: endogenous in cells; host or cells: E. coli DH5alpha (Invitrogen)
Protocol: E. coli DH5α bacteria (Invitrogen) transformed, e.g., with either pTrcHis2C-SIRT3(102-399), pTrcHis2C-SIRT3-H248Y(102-399), pTrcHis2C-SIRT5(12-310), pTrcHis2C-SIRT5(39-310) or pTrcHis2C-AceCS2(38-689) were grown to an A600 nm=0.4, and induced with 0.5 mM isopropyl-β-D-thiogalactopyranoside (IPTG) at 25° C. for 16 h. 6×His-tagged proteins were purified under native conditions at 4° C. using Ni-NTA agarose (Qiagen, Valencia, Calif.). Purified proteins were dialyzed (e.g., against sirtuin storage buffer […], 4 mM MgCl2, 50 mM NaCl, 0.5 mM DTT, 5% glycerol (v/v) or AceCS2 storage buffer [50 mM Tris-HCl (pH 8.0), 4 mM MgCl2, 10% glycerol (v/v)], adjusted to 0.5 g/L and stored frozen at −80° C. To induce acetylation of recombinant AceCS2, nicotinamide (50 mM) was added during protein expression (16 h, 25° C.).
Immunoblots were developed with enhanced chemiluminescence (Amersham Pharmacia Biosciences) or West SuperSignal reagent (Pierce). Membranes were either nitrocellulose or polyvinylidene fluoride (PVDF) (Immun-Blot; Bio-Rad Laboratories).

AceCS2 = test: Acetyl-CoA synthetase activity of purified AceCS2; format: biochemical, human; conditions: hyperacetylated AceCS2 from nicotinamide-treated E. coli vs untreated
Protocol: E. coli DH5α bacteria (Invitrogen) transformed, e.g., with either pTrcHis2C-SIRT3(102-399), pTrcHis2C-SIRT3-H248Y(102-399), pTrcHis2C-SIRT5(12-310), pTrcHis2C-SIRT5(39-310) or pTrcHis2C-AceCS2(38-689) were grown to an A600 nm=0.4, and induced with 0.5 mM isopropyl-β-D-thiogalactopyranoside (IPTG) at 25° C. for 16 h. 6×His-tagged proteins were purified under native conditions at 4° C. using Ni-NTA agarose (Qiagen, Valencia, Calif.). […]
The activity of purified AceCS2 was measured as described (Jones & Lipmann, 1955, in Methods in Enzymology (Academic Press, Vol. 1, pp. 585-591; Barak et al., 2004, J Mol Biol 342:383-401). Each reaction (0.5 mL) contained 100 mM hydroxylamine (pre-neutralized with KOH), 50 mM Tris-HCl (pH 8.0), 20 mM potassium acetate, 10 mM MgCl2, 10 mM ATP, 2 mM DTT and 1 mM CoA. All chemicals (Sigma) were of the highest purity available. Reactions were pre-incubated at 35° C. for 5 min before the addition of purified AceCS2 (6 μg). After 30 min of incubation, 0.5 mL stop solution (10% (w/v) FeCl3, 3.3% (w/v) trichloroacetic acid in 2 N HCl) were added and reactions were incubated on ice for 2 min. The samples were centrifuged for 2 min at 16,200×g to remove turbidity and the generated color was measured at 540 nm. […]

T1 sequence (P75960 whole entry): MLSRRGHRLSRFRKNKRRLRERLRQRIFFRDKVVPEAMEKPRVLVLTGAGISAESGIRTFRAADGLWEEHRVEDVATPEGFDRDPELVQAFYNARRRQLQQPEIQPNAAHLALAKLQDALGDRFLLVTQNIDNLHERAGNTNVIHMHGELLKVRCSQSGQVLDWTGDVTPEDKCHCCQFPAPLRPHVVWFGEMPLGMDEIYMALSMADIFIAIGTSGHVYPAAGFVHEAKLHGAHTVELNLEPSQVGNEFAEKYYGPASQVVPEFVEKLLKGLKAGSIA

NC(=O)c1cccnc1 [nicotinamide]
acetylation of mutant AceCS2 protein carrying an arginine residue in position 642 (bacterial sirtuins; E. coli treated with nicotinamide during expression, AceCS2-K642R): did not induce acetylation | acetylation of recombinant human AceCS2 (Lys642) (bacterial sirtuins; wild-type E. coli treated with nicotinamide (50 mM) during protein expression, 16 h, 25° C., AceCS2 wild type): hyperacetylation of recombinant human AceCS2; also recorded: significantly increased its levels of acetylation | specific activity of AceCS2 purified from bacteria treated or not with nicotinamide (AceCS2): significantly lower specific activity
